Laboratory results published in publication PMC8205030, “Methoxy and bromo scans on N-(5-methoxyphenyl) methoxybenzenesulphonamides reveal potent cytotoxic compounds, especially against the human breast adenocarcinoma MCF7 cell line” (Journal of Enzyme Inhibition and Medicinal Chemistry, 2021).
In brackets after ≈: the same amount, converted by molar mass.

Assays:
p-62 in MCF7 cells = test: Western blot of autophagosome marker p-62, MCF7; assay type: cell-based, human; settings: MCF7, 175 nM, 24 h
Method: MCF7, HeLa and HT-29 cells in an exponential growth phase at 2 × 10^4 cells/mL were seeded in Petri dishes (20 × 100 mm) (10 ml/dish). After 24 h incubation, cells were treated with compound 25 at 175 nM, and the levels of p-62 in treated and untreated cells were measured at 24 h post-treatment. The culture medium was removed, cells were washed with PBS and resuspended in 1 ml lysis buffer (50 mM Tris, 130 mM NaCl, 1 mM EDTA, 1% Triton X-100) containing protease inhibitors (Complete, Roche Applied Science, Indianapolis). Cells were harvested and incubated with lysis buffer for 30 min at 4 °C in constant agitation. Cell extracts were centrifuged at 12,000 rpm for 15 min at 4 °C and the supernatants were stored at −80 °C. Protein concentrations were determined using Bradford (BioRad, Hercules, CA) method taking BSA (Bovine Serum Albumin) as standard. Protein extracts were used for electrophoresis mixing with loading buffer (4% SDS, 0.05% bromophenol blue, 20% glycerine, 2% β-mercaptoethanol, and Tris 100 mM at pH 6.8). Proteins were then denatured at 95 °C for 7 min. Protein samples (50 μg/lane) were subjected to electrophoresis on 8% acrylamide gel and SDS-PAGE running buffer at constant voltage (140 V). Then, acrylamide gels were transferred to a PVDF membrane (Merck Millipore, Burlington, Massachusetts, USA) using a semi-dry transfer system for 30 min at constant voltage (15 V). […]

[1] = test system: HeLa (human cervical carcinoma) cells; test: Cell growth assay (XTT), HeLa; assay type: cell-based; settings: 72 h drug exposure, read-out: Antiproliferative activity IC50 HeLa
Summary of the method: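 Cells (1.5 × 10^4 cells/mL for MCF7, HeLa, HEK293; 3 × 10^4 cells/mL for HT-29) attached 24 h, then treated 72 h at 37 °C, 5% CO2. Screened at 1 µM; IC50 versus untreated controls from 10^−5 to 10^−10 M by nonlinear fit. XTT/PMS absorbance at 450 nm after 4 h (MCF7, HeLa) or 6 h (HT-29, HEK293); HT-29 with 10 µM verapamil.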

[2] = Aqueous solubility (saturation shake-flask, UV); assay type: physicochemical; settings: aqueous buffer, thermodynamic from solid, pH 7.0 phosphate buffer, room temperature
Method: The aqueous solubility was determined in a Helios-α UV-320 Spectrophotometer Thermo-Spectronic, Thermo Fischer Scientific, Waltham, MA, USA) using an approach based on the saturation shake-flask method. 1–2 mg of each selected compound was suspended in 300 µL pH 7.0 buffer and stirred for 48 h at room temperature. The resulting mixture was filtered through a […] filter to discard the insoluble residues. A scan between 270 and 400 nm for the tested compound was performed and three wavelengths of maximum absorbance were selected. Calibration curves were performed at these wavelengths and the concentration in the supernatant was measured by UV absorbance. The final value was given as the average of the three measurements.

HeLa cells = test: Apoptotic cell death quantification (Annexin V-FITC/PI), HeLa; assay type: cell-based, human; settings: 72 h
Method: MCF7, HeLa, and HT-29 apoptotic cells were quantified using an Annexin V-FITC/PI apoptosis detection kit (Immunostep, Salamanca, Spain) according to the manufacturer’s guidelines. 1.5 ml/well of cells in the exponential growth phase at 2 × 10^4 cells/mL were seeded onto 12-well plates and left to attach overnight. After 24 h incubation, cells were treated with compound 25 at 87.5 or 175 nM. 72 h post-treatment, attached and floating cells of treated and untreated wells were collected, centrifuged, resuspended in the Annexin V binding buffer, and stained with Annexin V-FITC/PI. Cells were then incubated in darkness at room temperature for 15 min and a total of 30,000 cells were acquired and analysed using the BD Accuri™ C6 Plus Flow Cytometer and Software (version 1.0.264.21, BD Biosciences, San José, CA, USA), respectively. Compounds were dissolved in DMSO and the final solvent concentrations never exceeded 0.5% (v/v). Control wells included cells with 0.5% (v/v) DMSO.

**Q.** For COc1ccc(S(=O)(=O)N(CC#N)c2cc(OC)c(Br)cc2OC)cc1 [Compound 25, N-(4-bromo-2,5-dimethoxyphenyl)-N-(cyanomethyl)-4-methoxybenzenesulphonamide], which p-62 levels (p-62 in MCF7 cells) is on record?
**A.** decay in p-62 levels

**Q.** And the IC50 [1]?
**A.** 36 nM

**Q.** What about the solubility at 48 h [2] of the same compound?
**A.** 1 µg/mL (≈ 2.27 µM)

**Q.** What about the Early apoptosis (HeLa cells; 87.5 nM) of the same compound?
**A.** 52.3%

**Q.** What about the Late apoptosis (HeLa cells; 87.5 nM) of the same compound?
**A.** 39.7%

**Q.** What about the “Live (AnV–/PI–)” value (HeLa cells; 87.5 nM) of the same compound?
**A.** 6.5%

**Q.** What about the Necrosis (HeLa cells; 87.5 nM) of the same compound?
**A.** 1.5%

**Q.** What about the Early apoptosis (HeLa cells; 175 nM) of the same compound?
**A.** 47.5%

**Q.** What about the Late apoptosis (HeLa cells; 175 nM) of the same compound?
**A.** 45.3%

**Q.** What about the “Live (AnV–/PI–)” value (HeLa cells; 175 nM) of the same compound?
**A.** 4.1%

**Q.** What about the Necrosis (HeLa cells; 175 nM) of the same compound?
**A.** 3.1%

**Q.** What about the Apoptotic profile (HeLa cells; 87.5 and 175 nM) of the same compound?
**A.** > 90%
